From patent US20170260226A1, “3-NITROGEN OR SULPHUR SUBSTITUTED OESTRA-1,3,5(10),16-TETRAENE AKR1C3 INHIBITORS” (BAYER PHARMA AKTIENGESELLSCHAFT, priority 2014, published 2017)
pIC50: −log10 of the molar value. Blank lines part the entries; values can stand above or below the compound they belong to.

What was measured:
AKR1C3 [1] = molecular target: T1, AKR1C3 (Homo sapiens, UniProt P42330); experiment: AKR1C3 enzyme inhibition assay (coumberone to coumberol fluorescence); format: biochemical; design: GST (cleaved yes); made in house; host or cells: E. coli; details: mean values; 10 μM NADPH, 0.3 μM coumberone, 3 h at room temperature
T1 sequence (P42330 1-323): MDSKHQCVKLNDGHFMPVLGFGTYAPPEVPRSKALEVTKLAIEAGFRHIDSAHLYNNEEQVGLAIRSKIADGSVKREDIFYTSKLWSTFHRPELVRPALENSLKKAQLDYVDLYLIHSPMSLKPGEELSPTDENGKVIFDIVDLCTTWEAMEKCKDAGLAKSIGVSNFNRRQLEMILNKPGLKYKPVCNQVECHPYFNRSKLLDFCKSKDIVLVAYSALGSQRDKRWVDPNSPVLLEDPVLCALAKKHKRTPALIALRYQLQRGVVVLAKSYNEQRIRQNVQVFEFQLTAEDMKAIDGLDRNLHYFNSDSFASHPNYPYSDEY
Experimental: The AKR1C3-inhibitory action of the substances of this invention was measured in the AKR1C3 assay described in the paragraphs which follow.
Essentially, the enzyme activity is measured by quantifying the coumberol formed from coumberone (Halim, M., Yee, D., J., and Sames, D., J. A., M. (2008). Chem Soc 130, 14123-14128 and Yee, D., J., Balsanek, V., Bauman, D., R., Penning, T., M., and Sames, D. (2006). Proc Natl Acad Sci USA, 103, 13304-13309). In this assay, the increase in the highly fluorescent coumberol can be determined by NADPH (nicotinamide adenine dinucleotide phosphate)-dependent reduction of the nonfluorescent coumberone by AKR1C3.
The enzyme used was recombinant human AKR1C3 (aldo-keto reductase family 1 member C3) (GenBank Accession No. NM_003739). This was expressed as the GST (glutathione S-transferase) fusion protein in E. coli and purified by means of glutathione-Sepharose affinity chromatography. The GST was removed by thrombin digestion with subsequent size exclusion chromatography (Dufort, I., Rheault, P., Huang, X., F., Soucy, P., and Luu-The, V. (1999). Endocrinology,140, 568-574).
For the assay, 40-50 nl of a 100-fold concentrated solution of the test substance in DMSO were pipetted into a black low-volume 384-well microtitre plate (Greiner Bio-One, Frickenhausen, Germany), 2-2.5 μl of a solution of AKR1C3 in assay buffer [50 mM potassium phosphate buffer pH 7, 1 mM DTT, 0.0022% (w/v) Pluronic F-127, 0.01% BSA (w/v) and protease inhibitor cocktail (complete, EDTA-free Protease Inhibitor Cocktail from Roche)] were added and the mixture was incubated for 20 min, in order to enable preliminary binding of the substances to the enzyme prior to the enzyme reaction. Then the enzyme reaction was started by adding 2-2.5 μl of a solution of NADPH and coumberone in assay buffer (final assay concentration was 10 μM NADPH and 0.3 μM coumberone) and the resulting mixture was incubated at room temperature for 3 h. Typical concentrations were depending on the linear range of the enzyme reaction during the reaction time about 1 nM. The reaction was stopped by adding 2 μl of a stop solution consisting of the AKR1C3 inhibitor EM-1404 to a final concentration of 1 μM. Subsequently, the fluorescence of coumberol was measured at 520 nm (excitation at 380 nm) with a suitable measuring instrument (Pherastar, BMG). […] The data were normalized (enzyme+coumberon substrate in assay buffer=0% inhibition; coumberone substrate only in assay buffer=100% inhibition). Substances were usually tested at 11 different concentrations on the same microtiter plate in a range between 96.8 pM to 20 μM (20 μM, 5.9 μM, 1.7 μM, 0.5 μM, 0.15 μM, 44 nM, 12.9 nM, 3.8 nM, 1.1 nM, 0.3 nM and 96.8 pM). The dilutions were carried out on a 100 fold concentrated solution by serial dilution in duplicates. From the obtained data IC50 values were calculated by a 4-parameter fit.

AKR1C3 [2] = molecular target: T1, AKR1C3; experiment: AKR1C3 inhibition in a cell-based system (HEK293 cells transfected with AKR1C3 expression plasmid, coumberon substrate); design: expressed in transfected cells; host or cells: HEK293 cells (ATCC); details: mean values; HEK293 cells transfected with AKR1C3, coumberon 6×10^−6M, 3 h; read-out: Cellular AKR1C3 inhibition IC50
Experimental: The inhibition of AKR1C3 by the substances described in this invention was measured in a cell-based assay using coumberon as the substrate for AKR1C3 (Halim, M., Yee, D., J., and Sames, D., J. (2008). Am Chem Soc, 130, 14123-14128 and Yee, D., J., Balsanek, V., Bauman, D., R., Penning, T., M., and Sames, D. (2006), Proc Natl Acad Sci USA 103, 13304-13309) (cf. Example 48).
The cell system used was HEK293 cells (ATCC, USA) (DMEM/F12, 10% FCS, 2 mM L-Glutamine, PSG). The cells were transfected with an AKR1C3 expression plasmid (pCMV6-AC-AKR1C3, GenBank Accession No. NM 003739.4), harvested after 24 hours and subsequently frozen. For assays, the frozen cells were thawed in assay medium (DMEM/F12 w/o phenolred, 0.005% Tween, 10% FCS, 2 mM L-Glutamine, PSG). Cells were seeded at 2500 cells/well into 384-well low volume or 1536-well plates (Greiner Bio-One, Frickenhausen, Germany) that contained 40-50 nl of a 100 fold concentrated compound solution in DMSO. After incubation at room temperature for 15 minutes, coumberon in PBS was added to a final concentration of 6×10^−6M. Following a 3 h incubation at room temperature, the reaction was stopped by lysing the cells with 0.4% Triton X-100. Coumberol fluorescence intensity was measured at 520 nm (excitation 380 nm) with a suitable measuring instrument (Pherastar, BMG). […] The data were normalized (transfected cells+coumberon=0% inhibition; no cells+coumberone=100% inhibition). Substances were usually tested at 11 different concentrations on the same microtiter plate in a range between 96.8 pM to 20 μM (20 μM, 5.9 μM, 1.7 μM, 0.5 μM, 0.15 μM, 44 nM, 12.9 nM, 3.8 nM, 1.1 nM, 0.3 nM and 96.8 pM). The dilutions were carried out on a 100 fold concentrated solution by serial dilution in duplicates. From the obtained data IC50 values were calculated by a 4-parameter fit.

Compound: COc1cncc(C2=CC[C@H]3[C@@H]4CCc5cc(S(=O)(=O)CCCC(=O)O)ccc5[C@H]4CC[C@]23C)c1 [Example 16, 4-{[17-(5-methoxypyridin-3-yl)estra-1,3,5(10),16-tetraen-3-yl]sulfonyl}butanoic acid]
pIC50 (AKR1C3 [1]): 8.01
pIC50 (AKR1C3 [2]): 6.27

Compound: Cc1cncc(C2=CC[C@H]3[C@@H]4CCc5cc(S(=O)(=O)CCCC(=O)O)ccc5[C@H]4CC[C@]23C)c1 [Example 17, 4-{[17-(5-methylpyridin-3-yl)estra-1,3,5(10),16-tetraen-3-yl]sulfonyl}butanoic acid]
pIC50 (AKR1C3 [1]): 8.80
pIC50 (AKR1C3 [2]): 6.77

Compound: C[C@]12CC[C@@H]3c4ccc(S(=O)(=O)CCCC(N)=O)cc4CC[C@H]3[C@@H]1CC=C2c1cncc(F)c1 [Example 20, 4-{[17-(5-fluoropyridin-3-yl)estra-1(10),2,4,16-tetraen-3-yl]sulfonyl}butanamide]
pIC50 (AKR1C3 [1]): 8.49
pIC50 (AKR1C3 [2]): 7.52

Compound: CN(CCCO)S(=O)(=O)c1ccc2c(c1)CC[C@@H]1[C@@H]2CC[C@]2(C)C(c3cncc(F)c3)=CC[C@@H]12 [Example 03, 17-(5-fluoropyridin-3-yl)-N-(3-hydroxypropyl)-N-methylestra-1(10),2,4,16-tetraene-3-sulfonamide]
pIC50 (AKR1C3 [1]): 8.62
pIC50 (AKR1C3 [2]): 7.30

Compound: Cc1ccc(C2=CC[C@H]3[C@@H]4CCc5cc(S(=O)(=O)CCCC(=O)O)ccc5[C@H]4CC[C@]23C)cn1 [Example 15, 4-{[17-(6-methylpyridin-3-yl)estra-1,3,5(10),16-tetraen-3-yl]sulfonyl}butanoic acid]
pIC50 (AKR1C3 [1]): 7.14
pIC50 (AKR1C3 [2]): 5.50

Compound: COC(=O)CCCS(=O)(=O)c1ccc2c(c1)CC[C@@H]1[C@@H]2CC[C@]2(C)C(c3cncc(F)c3)=CC[C@@H]12 [Example 09, methyl 4-{[17-(5-fluoropyridin-3-yl)estra-1(10),2,4,16-tetraen-3-yl]sulfonyl}butanoate]
pIC50 (AKR1C3 [1]): 8.11
pIC50 (AKR1C3 [2]): 7.30

Compound: C[C@]12CC[C@@H]3c4ccc(S(C)(=O)=O)cc4CC[C@H]3[C@@H]1CC=C2c1cncc(F)c1 [Example 08, 17-(5-fluoropyridin-3-yl)-3-(methylsulfonyl)estra-1(10),2,4,16-tetraene]
pIC50 (AKR1C3 [1]): 8.39
pIC50 (AKR1C3 [2]): 7.10

Continued, values first:

pIC50 (AKR1C3 [1]): 8.42
pIC50 (AKR1C3 [2]): 6.11
Compound: C[C@]12CC[C@@H]3c4ccc(NC(=O)CCC(=O)O)cc4CC[C@H]3[C@@H]1CC=C2c1cncc(F)c1 [Example 23, 4-{[17-(5-fluoropyridin-3-yl)estra-1(10),2,4,16-tetraen-3-yl]amino}-4-oxobutanoic acid]

pIC50 (AKR1C3 [1]): 8.30
pIC50 (AKR1C3 [2]): 6.96
Compound: C[C@]12CC[C@@H]3c4ccc(NC(=O)CCCO)cc4CC[C@H]3[C@@H]1CC=C2c1cncc(F)c1 [Example 27, N-[17-(5-fluoropyridin-3-yl)estra-1(10),2,4,16-tetraen-3-yl]-4-hydroxybutanamide]

pIC50 (AKR1C3 [1]): 7.93
pIC50 (AKR1C3 [2]): 5.66
Compound: C[C@]12CC[C@@H]3c4ccc(NC(=O)CCc5nn[nH]n5)cc4CC[C@H]3[C@@H]1CC=C2c1cncc(F)c1 [Example 32, N-[17-(5-fluoropyridin-3-yl)estra-1(10),2,4,16-tetraen-3-yl]-3-(2H-tetrazol-5-yl)propanamide]

pIC50 (AKR1C3 [1]): 7.73
pIC50 (AKR1C3 [2]): 5.95
Compound: CN(CCCC(=O)O)c1ccc2c(c1)CC[C@@H]1[C@@H]2CC[C@]2(C)C(c3cncc(F)c3)=CC[C@@H]12 [Example 44, 4-{[17-(5-fluoropyridin-3-yl)estra-1(10),2,4,16-tetraen-3-yl](methyl)amino}butanoic acid]

pIC50 (AKR1C3 [1]): 8.66
pIC50 (AKR1C3 [2]): 7.52
Compound: C[C@]12CC[C@@H]3c4ccc(S(C)(=N)=O)cc4CC[C@H]3[C@@H]1CC=C2c1cncc(F)c1 (stereo partly drawn) [Example 46, 17-(5-fluoropyridin-3-yl)-3-(S-methylsulfonimidoyl)estra-1(10),2,4,16-tetraene]

pIC50 (AKR1C3 [1]): 8.60
pIC50 (AKR1C3 [2]): 6.59
Compound: CN(C(=O)CCc1nn[nH]n1)c1ccc2c(c1)CC[C@@H]1[C@@H]2CC[C@]2(C)C(c3cncc(F)c3)=CC[C@@H]12 [Example 33, N-[17-(5-fluoropyridin-3-yl)estra-1(10),2,4,16-tetraen-3-yl]-N-methyl-3-(2H-tetrazol-5-yl)propanamide]

pIC50 (AKR1C3 [1]): 6.50
pIC50 (AKR1C3 [2]): 5.08
Compound: C[C@]12CC[C@@H]3c4ccc(NC(=O)CCC(=O)O)cc4CC[C@H]3[C@@H]1CC=C2c1cncnc1 [Example 25, 4-oxo-4-{[17-(pyrimidin-5-yl)estra-1(10),2,4,16-tetraen-3-yl]amino}butanoic acid]

pIC50 (AKR1C3 [1]): 8.28
pIC50 (AKR1C3 [2]): 7.00
Compound: CC(=O)Nc1ccc2c(c1)CC[C@@H]1[C@@H]2CC[C@]2(C)C(c3cncc(F)c3)=CC[C@@H]12 [Example 40, N-[17-(5-fluoropyridin-3-yl)estra-1(10),2,4,16-tetraen-3-yl]acetamide]
